Laboratory results taken from article PMC6112376, “Comprehensive Analyses and Prioritization of Tox21 10K Chemicals Affecting Mitochondrial Function by in-Depth Mechanistic Studies” (Environmental Health Perspectives, 2018).
Read-outs that look alike come from different tables or passages of the source.

What was measured:
HepG2 cells [1] = assay: cells; conditions: Homo sapiens; for Emax: HepG2, read-out: MMP assays efficacy (%) HepG2
[2] = test system: isolated rat liver mitochondria; assay: Oxygen consumption, Clark-type oxygen electrode; assay type: biochemical; conditions: for I-ADP, % of control (O2 consumption rate): glutamate/malate driven state 3 respiration; for I-ADP, % of control (O2 consumption rate) / I-sub, % of control (O2 consumption rate) / II-ADP, % of control (O2 consumption rate) / II-sub, % of control (O2 consumption rate): isolated rat liver mitochondria; for I-sub, % of control (O2 consumption rate): glutamate/malate driven state 4 respiration; for II-ADP, % of control (O2 consumption rate): succinate-driven state 3 respiration; for II-sub, % of control (O2 consumption rate): succinate-driven state 4 respiration; for Potential Mechanism: mitochondrial respiration in isolated rat liver mitochondria, Clark type oxygen electrode, over tested concentrations
[3] = test system: Caenorhabditis elegans strain PE255; assay: In vivo C. elegans ATP status assay
HepG2 cells [4] = conditions: cited from earlier work
rat primary hepatocytes = assay: MMP assay in rat primary hepatocytes; conditions: for IC50: Rattus norvegicus, Hepatocyte; for MMP assays efficacy (%) Rat Hepatocytes: mean ± SD of three experiments
[5] = test system: Caenorhabditis elegans (Bristol N2); assay: C. elegans larval development and growth assay
HepG2 cells [6] = assay: ROS-Glo hydrogen peroxide (ROS) assay; assay type: cell-based, human; conditions: Homo sapiens, HepG2; 2 h treatment; mean±SD of three experiments; read-out: ROS (HepG2) EC50
hNSC = assay: MMP assay in human neural stem cells (hNSC); assay type: cell-based; conditions: Homo sapiens, Neural stem cell; 1 h treatment; fresh re-sourced stocks; mean±SD of three experiments; read-out: hNSC IC50 (MMP)
[7] = test system: HeLa cells expressing YFP-Parkin; assay: Parkin translocation assay; assay type: cell-based, human; conditions: HeLa cells stably expressing YFP-Parkin; treated for 2 h
HepG2 cells [8] = assay: Intracellular ATP content (cell viability) assay; assay type: cell-based, human; conditions: 40 h treatment, mean±SD of three experiments
[9] = test system: Nrf2/ARE (ARE-bla HepG2 cells); assay: ARE β-lactamase reporter gene assay; assay type: cell-based, human; conditions: Homo sapiens, HepG2; 16 h incubation; mean±SD of three experiments; read-out: ARE (HepG2) EC50
[10] = HepG2, read-out: MMP assays IC50 (µM) HepG2
[11] = read-out: MMP assays IC50 (µM) Rat Hepatocytes

CCc1cc(Cc2cc(CC)cc(C(C)(C)C)c2O)c(O)c(C(C)(C)C)c1
IC50 (HepG2 cells [1]; [10]): 2 µM
Emax (HepG2 cells [1]): 90%
I-ADP, % of control (O2 consumption rate) ([2]; 20 µM): 96 (47.4) % of control
I-sub, % of control (O2 consumption rate) ([2]; 20 µM): 105 (16.9) % of control
II-ADP, % of control (O2 consumption rate) ([2]; 20 µM): 100 (77.8) % of control
II-sub, % of control (O2 consumption rate) ([2]; 20 µM): 97 (29.7) % of control
I-ADP, % of control (O2 consumption rate) ([2]; 100 µM): 121 (34.8) % of control
I-sub, % of control (O2 consumption rate) ([2]; 100 µM): 175 (20.9) % of control
II-ADP, % of control (O2 consumption rate) ([2]; 100 µM): 98 (35.6) % of control
II-sub, % of control (O2 consumption rate) ([2]; 100 µM): 134 (19.8) % of control
Potential Mechanism [2]: Uncoupler
LUM: mean difference in luminescence (ATP content) relative to plate controls ([3]; 0.5 µM): -0.0103
LUM: mean difference in luminescence (ATP content) relative to plate controls ([3]; 1 µM): -0.09559
LUM: mean difference in luminescence (ATP content) relative to plate controls ([3]; 5 µM): -0.6519
LUM: mean difference in luminescence (ATP content) relative to plate controls ([3]; 10 µM): -0.6136
LUM: mean difference in luminescence (ATP content) relative to plate controls ([3]; 25 µM): -0.3378
LUM: mean difference in luminescence (ATP content) relative to plate controls ([3]; 50 µM): -0.154
LUM: mean difference in luminescence (ATP content) relative to plate controls ([3]; 75 µM): 0.1094
LUM: mean difference in luminescence (ATP content) relative to plate controls ([3]; 100 µM): 0.04601
MMP assays efficacy (%) qHTS-HepG2 (HepG2 cells [4]): -111±18%
IC50 (HepG2 cells [4]; read-out: MMP assays IC50 (µM) qHTS-HepG2): 1.22 ± 0.73 µM
IC50 (rat primary hepatocytes; [11]): 5.01 ± 4.35 µM
MMP assays efficacy (%) Rat Hepatocytes (rat primary hepatocytes): -78±36%
EXT: mean difference in nematode size relative to plate controls ([5]; 0.5 µM): 0.1174
EXT: mean difference in nematode size relative to plate controls ([5]; 1 µM): 0.117
EXT: mean difference in nematode size relative to plate controls ([5]; 5 µM): 0.5074
EXT: mean difference in nematode size relative to plate controls ([5]; 10 µM): 0.7525
EXT: mean difference in nematode size relative to plate controls ([5]; 25 µM): 0.8303
EXT: mean difference in nematode size relative to plate controls ([5]; 50 µM): 1.425
EXT: mean difference in nematode size relative to plate controls ([5]; 75 µM): 1.246
EXT: mean difference in nematode size relative to plate controls ([5]; 100 µM): 1.387
minimal effective concentration ([5]; Caenorhabditis elegans, read-out: LEC EXT: lowest effect concentration for extinction, a measure of nematode size): 5 µM

O=C(O)c1cccnc1Nc1cccc(C(F)(F)F)c1 [Niflumic acid, reference compound]
IC50 (HepG2 cells [1]; HepG2, 1 h, read-out: HepG2 IC50 Galactose (MMP)): 42.8 µM
IC50 (HepG2 cells [1]; HepG2, 1 h, read-out: HepG2 IC50 Glucose (MMP)): 44.6 ± 3.02 µM
IC50 (HepG2 cells [1]; [10]): 15.5 µM
Emax (HepG2 cells [1]): 114%
I-ADP, % of control (O2 consumption rate) ([2]; 0.032 µM): 91 (32.6) % of control
I-sub, % of control (O2 consumption rate) ([2]; 0.032 µM): 116 (11.1) % of control
II-ADP, % of control (O2 consumption rate) ([2]; 0.032 µM): 90 (48.1) % of control
II-sub, % of control (O2 consumption rate) ([2]; 0.032 µM): 110 (18.1) % of control
I-ADP, % of control (O2 consumption rate) ([2]; 0.16 µM): 82 (29.2) % of control
I-sub, % of control (O2 consumption rate) ([2]; 0.16 µM): 111 (10.7) % of control
II-ADP, % of control (O2 consumption rate) ([2]; 0.16 µM): 101 (54.0) % of control
II-sub, % of control (O2 consumption rate) ([2]; 0.16 µM): 124 (20.4) % of control
I-ADP, % of control (O2 consumption rate) ([2]; 0.8 µM): 91 (32.5) % of control
I-sub, % of control (O2 consumption rate) ([2]; 0.8 µM): 131 (12.6) % of control
II-ADP, % of control (O2 consumption rate) ([2]; 0.8 µM): 89 (47.6) % of control
II-sub, % of control (O2 consumption rate) ([2]; 0.8 µM): 135 (22.1) % of control
I-ADP, % of control (O2 consumption rate) ([2]; 4 µM): 86 (30.8) % of control
I-sub, % of control (O2 consumption rate) ([2]; 4 µM): 180 (17.3) % of control
II-ADP, % of control (O2 consumption rate) ([2]; 4 µM): 96 (51.1) % of control
II-sub, % of control (O2 consumption rate) ([2]; 4 µM): 221 (36.2) % of control
I-ADP, % of control (O2 consumption rate) ([2]; 20 µM): 101 (36.0) % of control
I-sub, % of control (O2 consumption rate) ([2]; 20 µM): 380 (36.5) % of control
II-ADP, % of control (O2 consumption rate) ([2]; 20 µM): 54 (28.9) % of control
II-sub, % of control (O2 consumption rate) ([2]; 20 µM): 195 (32.0) % of control
I-ADP, % of control (O2 consumption rate) ([2]; 100 µM): 70 (32.1) % of control
I-sub, % of control (O2 consumption rate) ([2]; 100 µM): 234 (36.2) % of control
II-ADP, % of control (O2 consumption rate) ([2]; 100 µM): 23 (16.4) % of control
II-sub, % of control (O2 consumption rate) ([2]; 100 µM): 56 (17.7) % of control
Potential Mechanism [2]: Uncoupler at low concentrations (0.16-4 µM), and Uncoupler + inhibitor at high concentrations ( 20-100 µM)
EC50 (HepG2 cells [6]): 6.35 ± 2.16 µM
IC50 (hNSC): 38.3 ± 4.41 µM
Parkin recruitment [7]: Inactive
ATP (HepG2, glucose) IC50 (HepG2 cells [8]; 5 mM glucose): Inactive
ATP (HepG2, galactose) IC50 (HepG2 cells [8]; 10 mM galactose): Inactive
EC50 [9]: 25.1 ± 2.05 µM
effect on ATP content (in words) ([3]; 0.5–100μM, 24 h exposure): statistically significant decreases in ATP content
minimal effective concentration ([3]; Caenorhabditis elegans, read-out: LEC LUM: lowest effect concentration for luminescence, a measure of nematode ATP content): 100 µM
MMP assays efficacy (%) qHTS-HepG2 (HepG2 cells [4]): -113±5%
IC50 (HepG2 cells [4]; read-out: MMP assays IC50 (µM), qHTS-HepG2): 13 ± 2.17 µM
Rat hepatocytes (efficacy) (MMP) (rat primary hepatocytes; % of positive control, mean±SD of three experiments): −98.8±9.27%
IC50 (rat primary hepatocytes; 1 h, read-out: Rat hepatocytes IC50 (MMP)): 19.9 ± 1.35 µM
IC50 (rat primary hepatocytes; [11]): 6.71 ± 1.14 µM
MMP assays efficacy (%) Rat Hepatocytes (rat primary hepatocytes): -127±56%
effect on larval growth (in words) ([5]; 0.5–100μM, 48 h exposure): did not affect growth
